In patent US20250127165A1, “USE OF 2-AMINO-3-PHENYLBUTYRIC ACID OR 2,6-DIAMINO-3-METHYLHEXANOIC ACID AS PLANT IMMUNE RESISTANCE INDUCER” (NANJING TIANNONG BIOTECHNOLOGY CO., LTD., priority 2021, published 2025):

Experiments:
wheat powdery mildew = experiment: Induced resistance of wheat seedlings to powdery mildew infection (pot test); format: in vivo, wheat (NAU0686); settings: for disease index / relative immunization effect: concentration higher than 1,000 nM
Method: 2-amino-3-phenylbutyric acid was dissolved in distilled water and then gradiently diluted with distilled water into solutions of 10 nM, 100 nM, 1,000 nM, and 10,000 nM, and a blank control was set up. After germination, wheat (NAU0686) seeds were planted in sterilized soil culture pot, and cultured in a greenhouse at 23° C. (+1° C.) and 12-h light/dark conditions. When the seedlings grew to the 1-leaf-1-heart stage, a solution of 2-amino-3-phenylbutyric acid at the above concentrations was sprayed onto the stems and leaves of wheat seedlings, and repeated the treatment at 24-hour intervals for a total of two treatments. After 24 hours, fresh wheat powdery mildew spores were uniformly sprinkled onto the wheat leaves, and each treatment comprised three pots of seedlings, with 20 plants per pot. After 10 days, the disease grade of wheat in each treatment group was investigated, and the morbidity degree was recorded according to the grading standard of wheat powdery in the “Pesticides-Guidelines for the Field Efficacy Trails” (I), and the disease index and the relative immunization effect were calculated in the same manner as those of tomato spotted wilt.
Grading Standard of Wheat Powdery Mildew (per leaf): • Grade 1: The area of diseased spots accounts for 5% or less of the whole leaf area; • Grade 3: The area of diseased spots accounts for 6%-15% of the whole leaf; • Grade 5: The area of diseased spots accounts for 16%-25% of the whole leaf; • Grade 7: The area of diseased spots accounts for 26%-50% of the whole leaf; • Grade 9: The area of diseased spots accounts for 50% or more of the whole leaf area.

[1] = system: tomato spotted wilt virus; experiment: Induced resistance of tobacco to tomato spotted wilt virus infection; format: in vivo, Nicotiana benthamiana; settings: for viral protein content: leaves 3 days after inoculation, Western blot grey scale
Method: Tomato spotted wilt virus was obtained from Yunnan Province, China. The initial virus source was stored in a refrigerator at −80° C., and inoculated on the leaves of Nicotiana benthamiana using friction inoculation method to activate the virus. The virus plasmids were extracted and transformed with competent cells of Escherichia coli. The competent cells were coated on a resistant plate for culture. Single colonies were picked for PCR screening, and positive colonies were selected for sequencing and subsequent plasmid extraction. The plasmids with normal sequencing results were added to competent cells of Agrobacterium sp, and Agrobacterium was transformated by electroporation. A solution of the transformed Agrobacterium was coated on the corresponding resistant screening plate, and cultured at 28° C. (+1° C.) for 48 h. Single colonies of the Agrobacterium on transformation plate were picked, placed in 5 mL of LB medium with the corresponding resistance, and cultured overnight at 28° C., 180 rpm. The bacterial cells were collected by centrifugation at 6,000 rpm for 2 min, suspended with a treatment solution (10 mM MgCl2, 10 mM MES, and 10 μM Acetosyringone) until the OD600 value of the suspension was 0.5. The suspension was treated at 28° C. in the dark for 3 hours for later use. 2-amino-3-phenylbutyric acid was dissolved in distilled water and then gradiently diluted with distilled water into solutions of 0 nM, 0.1 nM, 1 nM, and 10 nM. Nicotiana benthamiana seeds were planted in small pots and incubated at 22° C. (+1° C.), 12 h/12 h light for 5 weeks. Healthy tobacco plants (preferably with 8-10 leaves) were selected and treated with the 2-amino-3-phenylbutyric acid solutions of the above concentrations by spraying on the stems and leaves, and repeated the treatment at 24-hour intervals for a total of two treatments. After 24 hours, a uniform concentration of Agrobacterium solution was extracted with a 1 mL syringe, the injection port of the syringe was pressed directly on the small hole on the back of the tobacco leaf, and the bacterial solution was slowly pushed in order to infiltrate soak the entire leaf. The infiltrated tobacco was moved to an environment of 24° C. (+1° C.), 12 h/12 h light for incubation. After 3 days, microscopic observation was performed and recorded. At the same time, the samples were taken, and the gray scale of protein bands was analyzed by Western blot combined with Image J software to determine the relative protein content of virus in leaves. After 15 days, the disease of tobacco leaves was observed and the disease index was recorded with reference to “grade and investigation method of tobacco diseases and insect pests” (GB/T 23222-2008) with the following formulas: […]
Grading standard of Tomato spotted wilt virus disease (grading and investigation were conducted per plant): • Grade 0: the whole plant is disease free; • Grade 1: heart leaves have clear veins or slightly mosaic, and there is no obvious dwarfing of diseased plants; • Grade 3: one-third of the leaves are mosaic without deformation, or the diseased plant is dwarfed to three quarters or more of the normal plant height; • Grade 5: one-third to one-half of the leaves are mosaic, or a few leaves are deformed, or the main veins become black, or the diseased plant is dwarfed to two-thirds to three-quarters of the normal plant height; • Grade 7: one-half to two-thirds of the leaves are mosaic or deformed, or a few main and lateral veins become necrotic, or the diseased plant is dwarfed to one-half to two-thirds of the normal plant height; • Grade 9: the leaves of the whole plant are mosaic, severely deformed or necrotic, or the diseased plant is dwarfed to one-half or […] of the normal plant height.

tea seedlings (Baiye 1) = experiment: Induced resistance of tea tree to low temperature stress; format: in vivo; settings: for PIABS (photosynthetic performance index): after −4° C. for 24 h; for cold injury index (%): −4° C. 24 h, 3 days recovery
Method: The tea tree tested was cutting seedling of Baiye 1. Tea seedlings with consistent growth were selected and transplanted into plastic pots with a diameter of 18 cm and placed in a greenhouse with a temperature of 25° C. and a humidity of 60%-70% for adaptive growth for about a week for the experiment. The concentrations used in this experiment were 0, 100, 1,000, and 10,000 nM, and 0.02% Tween 20 was added as surfactant, where the spray treatment method was the same as that of Arabidopsis thaliana in Example 1, the duration of low temperature stress was 24 hours, and the temperature was set to −4° C. After the stress was completed, the tea seedlings were removed and after 30 min of dark treatment at room temperature, the chlorophyll fluorescence of the top leaves of the tea seedlings was measured with Plant Efficiency Handy PEA. The tea seedlings were then placed in a greenhouse at 25° C. for 3 days for recovery. Then the condition of cold injury was observed and graded, where the grading standard of cold injury is shown Table 12, the formula for calculating the cold injury index is as follows.
The concentrations of 2,6-diamino-3-methylhexanoic acid used in the trail were 0, 1, 10, 100, and 1,000 nM, and 0.02% Tween 20 was added as surfactant. The effect of 2,6-diamino-3-methylhexanoic acid to induce the resistance of tea to low-temperature stress was investigated according to the method as described above.

[2] = 0.1 nM spray, 15 days after inoculation
[3] = 1 nM spray, 15 days after inoculation
[4] = each treatment in the range 0.1-10 nM

| SMILES | relative immunization effect (%) (wheat powdery mildew; 10 nM) | relative immunization effect (%) (wheat powdery mildew; 100 nM) | relative immunization effect (%) (wheat powdery mildew; 1,000 nM) | relative immunization effect (%) (wheat powdery mildew; 10,000 nM) | disease index (wheat powdery mildew) | relative immunization effect (wheat powdery mildew) | relative immunization effect (%) ([1]; 0.1 nM) | disease index [1, 2] [b] | viral protein content ([1]; 0.1 nM) [b] | relative immunization effect (%) ([1]; 1 nM) | disease index [1, 3] [c] | viral protein content ([1]; 1 nM) [c] | relative immunization effect (%) ([1]; 10 nM) | disease index [1, 4] | relative immune effect [1, 4] [%] | PIABS (photosynthetic performance index) (tea seedlings (Baiye 1); 100 nM) | cold injury index (%) (tea seedlings (Baiye 1); 100 nM) | PIABS (photosynthetic performance index) (tea seedlings (Baiye 1); 1,000 nM) | cold injury index (%) (tea seedlings (Baiye 1); 1,000 nM) | further results |
| --- | --- | --- | --- | --- | --- | --- | --- | --- | --- | --- | --- | --- | --- | --- | --- | --- | --- | --- | --- | --- |
| CC(CCCN)C(N)C(=O)O (stereo not drawn) [2,6-diamino-3-methylhexanoic acid] | 28.13 | 48.99 | 65.26 | 73.45 | lower than 50 | more than 50% | 53.08 | 42.64 ± 1.25 | 0.41 ± 0.005 | 63.72 | 32.97 ± 1.26 | 0.23 ± 0.002 | 70.94 | lower than 50 | ≥ 50 | 37.41 ± 0.14 b | 33 | 40.14 ± 0.15 a | 26 | PIABS (photosynthetic performance index) (tea seedlings (Baiye 1); 1 nM): 25.53 ± 0.09; cold injury index (%) (tea seedlings (Baiye 1); 1 nM): 46%; PIABS (photosynthetic performance index) (tea seedlings (Baiye 1); 10 nM): 32.44 ± 1.51 c; cold injury index (%) (tea seedlings (Baiye 1); 10 nM): 42%; decrease of cold injury index (tea seedlings (Baiye 1); 1,000 nM): 45%; increase of PIABS (tea seedlings (Baiye 1); 1,000 nM): 121% |
| CC(c1ccccc1)C(N)C(=O)O (stereo not drawn) [2-amino-3-phenylbutyric acid] | 19.88 | 30.77 | 55.38 | 66.92 | lower than 50 | more than 50% | 35.77 | 48.77 ± 0.87 | 0.33 ± 0.003 | 60.98 | 29.63 ± 1.51 | 0.14 ± 0.008 | 69.23 | lower than 50 | ≥ 35 | 21.83 ± 1.73 bc | 66.33 | 33.67 ± 3.27 b | 45 | decrease of cold injury index (tea seedlings (Baiye 1); 10,000 nM): 35%; increase of PIABS (tea seedlings (Baiye 1); 10,000 nM): 147%; PIABS (photosynthetic performance index) (tea seedlings (Baiye 1); 10,000 nM): 42.36 ± 3.51 a; cold injury index (%) (tea seedlings (Baiye 1); 10,000 nM): 40% |
